The record followed here is US8163803B2 (Fundação Oswaldo Cruz—FIOCRUZ, priority 2004, dated 2012).

The subject of series [1] is isolated ileum of an experimental animal. As to the kind of experiment: Anaphylactic contraction of isolated ileum induced by antigen (ovoalbumin). Conditions: antigen (10 μg/ml), average ±SEM, at least 3 animals; read-out: Stimulation with antigen IC50. The protocol:
(§1) Female and male experimental animals were used, weighing between 300 and 400 g, they came from Oswaldo Cruz Foundation's Center of Laboratory Animal Raising. The procedures involving the animals were examined and approved by Oswaldo Cruz Foundation's Committee of Animal Ethics (CEUA-FIOCRUZ, Licenca no. 00085-02). The animals were sensitized through a subcutanous injection with a mixture of 50 μg ovoalbumin and 5 mg Al(OH)3. From fourteen to thirty days after the sensitization, the experimental, animal was sacrificed in a chamber of carbonic gas to have its abdomen open and the location of the ileocecal valve. At this point, the intestine was sectioned and a segment of the small intestine, about 20 cm (equivalent to the ileum) was carefully removed and internally washed with a warmed solution (37° C.) of Tyrode (Composition in mM) (NaCl 137; KCl 2.7; NaH2PO4 0.42; NaHCO3 11.9; MgCl2 0.5; CaCl2 1.8; glucose 5.6) to remove the fecal content. […].
(§2) About 3-cm ileum fragments were vertically mounted in 10 ml glass cuvettes, immersed in Tyrode's solution at 37° C., aerated with carbogen (O2, 95% and CO2, 5%) and supplemented with atropine according to the standard procedure. The tissue had one of its ends tied to a rod while the other end was coupled with a transductor after the transference from the rod to the cuvette. The contractions were isotonically registered (basal tension of 1 g) with the support of a transductor of displacement-force connected to a computerized system to capture data. After a 30 minute period of balance, each segment was repeatedly stimulated by histamine (1 μM) until response stabilization. To induce anaphylatic contraction, ileum segments from sensitized experimental animals were stimulated by ovoalbumin (10 μg/ml). […]. The results were presented as a percentage of inhibition calculated in relation to the contractive effect obtained from stimulated and non-treated preparations.
(§3) Concentration-response data were adjusted through non-linear regression curves with the assistence of a graphics software (GraphPad Prism, USA). The concentration of an antagonist needed to inhibit the contractive response to inhibit the contractive response after stimulation by histamine or antigen at 50% (IC50) was used to compare the anti-spasmodic potency. The values expressed as an average ± standard error of the mean and statistically analysed through the test of analysis variance (ANOVA), followed by the Newman-Keuls-Student test.

The test system of series [2] is experimental animal trachea. As to the kind of experiment: Relaxation of trachea pre-contracted by anaphylactic stimulation (ovoalbumin). The note with it: pre-contracted with ovoalbumin (20 μg/ml), average±SEM, at least 3 animals; read-out: IC50, concentration necessary to relax in 50% the anaphylatic spasm of trachea. On the procedure:
Female and male experimental animals were used, weighing between 300 and 400 g, they came from Oswaldo Cruz Foundation's Center of Laboratory Animal Raising. The procedures involving the animals were examined and approved by Oswaldo Cruz Foundation's Committee of Animal Ethics (CEUA-FIOCRUZ, License number 00085-02). The animals were sensitized through a subcutaneous injection with a mixture of 50 μg ovoalbumin and 5 mg Al(OH)3. Fourteen to thirty days after the sensitization, the experimental animal was sacrificed in a chamber of carbonic gas to have its trachea removed. The trachea was transferred to a Petri dish containing Krebs solution (composition in mM) (NaCl-119; […] NaHCO3-25; […] The total segment was divided into fragments of about 3 to 4 rings that were sectioned at the extreme ending, the muscular part of the trachea. Each fragment had one of its ends tied to a rod while the other end was connected to an isometric transductor (U Basile, Italy) after the transference from the rod to a 10 ml glass cuvette. […] The contractions were registered with the […] of a computerized system of data capture (Letica, Spain). […] The results were shown as a percentage of relaxation in relation to the plateau of the anaphylatic pre-contraction. Concentration-response data were adjusted through non-linear regression curves with the […] of a graphics software (GraphPad Prism, USA). […] The values were expressed as an average± standard error of the mean and statistically analysed through the test of analysis variance (ANOVA), followed by the Newman-Keuls-Student test.

The subject of series [3] is isolated ileum of an experimental animal. The series is described as follows: Contraction of isolated ileum induced by histamine. Conditions: histamine (5 μM), average ±SEM, at least 3 animals; read-out: Stimulation with histamine IC50. On the procedure: as §1, §2, §3
Series [4] relates to cutaneous sites of the dorsal region of adult Wistar rats. As to the kind of experiment: Local anesthetic activity, intradermal injection in dorsal skin, response to mechanical stimulation. It counts as in vivo. The note with it: for time of anesthesia compared with lidocaine: doses from 0.5 to 4 μMol/site. On the procedure:
Female and male Wistar rats, weighing between 200 and 250 g, they came from Oswaldo Cruz Foundation's Center of Laboratory Animal Raising were used. The procedures involving the animals were examined and approved by Oswaldo Cruz Foundation's Committee of Animal Ethics (CEUA-FIOCRUZ, License number 00085-02). After brief anesthesia by exposure to the atmosphere enriched with […] animals were trichotomized dorsal region, where the […] injections with substances for test were performed; doses varied from 0.5 to 4 μMol/site, and vehicule (NaCl 0.9%) (negative control), the final volume was 50 μl. Each animal took six injections and four animals were used for each tested substance. The application points were mechanically estimulated with a tweezer in order to evaluate the integrity of sensitiveness. The site was considered not to be anesthesized whenever after the mechanical stimulation it was observed a local retraction of the skin, according to what had been previously reported. The evaluations began 10 minutes after intradermal injections had been taken, which continued every five minutes until it was obtained the cutaneous retraction response. The values (average±standard error of the mean, SEM) were expressed in terms of “Time of Anesthesia” in minutes.

The subject of a further series is Swiss 44 mice. As to the kind of experiment: Convulsivant activity after intraperitoneal injection. It counts as in vivo. The protocol: Female and male Swiss 44 mice were used, weighing between 25 and 30 g, they came from Oswaldo Cruz Foundation's Center of Laboratory Animal Raising. The procedures involving the animals were examined and approved by Oswaldo Cruz Foundation's Committee of Animal Ethics (CEUA-FIOCRUZ, Act 00085-02). […] For each molecule, the necessary dose to induce a convulsive clinical Figure in 50% of the animals (DE50) was determined by linear regressive curves interpoled (GraphPad Prim, version 3.03).

The mark [5] stands for this setting: intraperitoneal, 15 minutes after injection, 10 mice per dose.

For the compound `CCN(CC)CC(=O)Nc1ccc(C)cc1C` [JM24-1, 2-dyethylamine-2′,4′-acetoxylidide], the IC50 in series [1] was 190 ± 40 µM; in series [2] it was 30 µM; in series [3] it was 310 ± 60 µM. In addition, the “time of anesthesia compared with lidocaine” value in series [4] was “significantly inferior”. Also, the “convulsivant activity compared with lidocaine” value with Swiss 44 mice (40-500 mg/Kg intraperitoneal) is given as “noticeably inferior”. Besides, the “DE50, dose to induce convulsion in 50% of the animals” value (“DE50, dose … in 50% of the animals” for short) in the series on Swiss 44 mice (setting [5]) is listed as 230 mg/kg.
Turning to `CCN(CC)CC(=O)Nc1c(C)cccc1C` [Lidocaine, 1-(2-(dyethylamine)N-dymethylfenyl)-acetamide, reference compound], the IC50 turned out to be 1430 ± 90 µM in series [1], 1350 ± 20 µM in series [2] and 1410 ± 120 µM in series [3]. The “Time of Anesthesia” value in series [4] (4 μMol/site intradermal, n=4, average±SEM) was 168 ± 3 min. Moreover, in the series with Swiss 44 mice (80 mg/Kg intraperitoneal), the “percentage of injected animals led to convulsion” value was found to be 100%. Besides, the “DE50, dose … in 50% of the animals” value with Swiss 44 mice (setting [5]) is recorded as 62 mg/kg.
As for `CCN(CC)CC(=O)Nc1cccc(C)c1C` [JM23-1, 2-dyethylamine-2′,3′-acetoxylidide], the IC50 in series [1] is 330 µM; in series [2], 220 ± 60 µM; in series [3], 380 ± 60 µM. Also, the “time of anesthesia compared with lidocaine” value in series [4] was “significantly inferior”. For the same compound, the “DE50, dose … in 50% of the animals” value in the series with Swiss 44 mice (mouse, in vivo, ip) is 154 mg/kg.
